Assay results from ChEMBL document CHEMBL1137297, “Synthesis and pharmacological evaluation of novel octahydro-1H-pyrido[1,2-a]pyrazine as mu-opioid receptor antagonists” (J Med Chem, 2006).
pIC50, pKi: −log10 of the molar value.

Experiments:
[1] = target: T1, Kappa-type opioid receptor (Homo sapiens, UniProt P41145); assay: Inhibition of [3H]diprenorphine binding to human cloned kappa opioid receptor expressed in CHO cells at 10 uM; type: cell-based
[2] = target: T2, Mu-type opioid receptor (Homo sapiens, UniProt P35372); assay: Antagonist activity assessed as inhibition of loperamide-stimulated [35S]GTPgammaS binding to human mu opioid receptor expressed in CHO cells; type: functional, cell-based
[3] = target: T2, Mu-type opioid receptor; assay: Displacement of [3H]diprenorphine from human cloned mu opioid receptor expressed in CHO cells; type: cell-based
[4] = target: T3, Delta-type opioid receptor (Homo sapiens, UniProt P41143); assay: Displacement of [3H]diprenorphine from human cloned delta opioid receptor expressed in CHO cells; type: cell-based
[5] = target: T3, Delta-type opioid receptor; assay: Inhibition of [3H]diprenorphine binding to human cloned delta opioid receptor expressed in CHO cells at 10 uM; type: cell-based
[6] = target: T2, Mu-type opioid receptor; assay: Inhibition of [3H]diprenorphine binding to human cloned mu opioid receptor expressed in CHO cells at 10 uM; type: cell-based
[7] = target: T1, Kappa-type opioid receptor; assay: Displacement of [3H]diprenorphine from human cloned kappa opioid receptor expressed in CHO cells; type: cell-based
[8] = target: T1, Kappa-type opioid receptor; assay: Antagonist activity assessed as inhibition of U50488-stimulated [35S]GTP-gamma-S binding to human kappa opioid receptor expressed in CHO cells; type: functional, cell-based
[9] = target: T3, Delta-type opioid receptor; assay: Antagonist activity assessed as inhibition of BW373U86-stimulated [35S]GTP-gamma-S binding to human delta opioid receptor expressed in CHO cells; type: functional, cell-based

T3 sequence (P41143 whole entry): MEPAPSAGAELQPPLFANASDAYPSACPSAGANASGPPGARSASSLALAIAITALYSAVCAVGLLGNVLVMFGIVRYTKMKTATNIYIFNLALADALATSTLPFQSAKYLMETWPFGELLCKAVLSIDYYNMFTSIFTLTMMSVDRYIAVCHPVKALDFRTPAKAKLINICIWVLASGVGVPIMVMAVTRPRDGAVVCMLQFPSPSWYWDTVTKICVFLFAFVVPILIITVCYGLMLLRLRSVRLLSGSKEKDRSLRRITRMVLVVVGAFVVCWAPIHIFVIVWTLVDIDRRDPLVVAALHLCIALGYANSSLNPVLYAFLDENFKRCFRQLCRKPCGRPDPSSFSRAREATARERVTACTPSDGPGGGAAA
T1 sequence (P41145 whole entry): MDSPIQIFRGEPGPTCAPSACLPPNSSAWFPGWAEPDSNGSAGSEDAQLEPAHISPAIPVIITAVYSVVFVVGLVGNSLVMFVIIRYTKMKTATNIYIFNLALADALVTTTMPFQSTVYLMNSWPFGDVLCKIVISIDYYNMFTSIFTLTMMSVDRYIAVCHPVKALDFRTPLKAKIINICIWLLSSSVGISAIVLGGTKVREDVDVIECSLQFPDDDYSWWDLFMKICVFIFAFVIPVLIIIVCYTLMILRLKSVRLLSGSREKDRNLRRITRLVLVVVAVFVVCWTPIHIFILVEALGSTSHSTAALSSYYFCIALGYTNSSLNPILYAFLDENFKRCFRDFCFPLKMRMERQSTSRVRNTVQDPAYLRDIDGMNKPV
T2 sequence (P35372 whole entry): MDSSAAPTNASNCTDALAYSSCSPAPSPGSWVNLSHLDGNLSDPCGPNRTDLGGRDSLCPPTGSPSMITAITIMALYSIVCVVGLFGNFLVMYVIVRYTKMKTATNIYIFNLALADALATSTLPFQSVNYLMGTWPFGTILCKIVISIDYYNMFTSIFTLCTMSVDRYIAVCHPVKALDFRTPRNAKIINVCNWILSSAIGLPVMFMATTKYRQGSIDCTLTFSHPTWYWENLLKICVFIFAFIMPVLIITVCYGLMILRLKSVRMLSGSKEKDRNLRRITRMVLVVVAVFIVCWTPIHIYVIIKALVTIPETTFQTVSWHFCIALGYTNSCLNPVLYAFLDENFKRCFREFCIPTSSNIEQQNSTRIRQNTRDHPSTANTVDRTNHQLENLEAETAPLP

## C[C@H]1CN2CCN(Cc3ccncc3)C[C@H]2C[C@@]1(C)c1cccc(O)c1
[1]
  inhibition: 67%
[2]
  pIC50: 7.74
[3]
  pKi: 7.82
[4]
  pKi: 5.89

## C[C@H]1CN2CCN(S(=O)(=O)c3ccccc3)C[C@H]2C[C@@]1(C)c1cccc(O)c1
[1]
  inhibition: 34%
[2]
  pIC50: 6.85
[3]
  pKi: 6.68
[4]
  pKi: 5.77

## C[C@H]1CN2CCN(Cc3ccnc4ccccc34)C[C@H]2C[C@@]1(C)c1cccc(O)c1
[5]
  inhibition: 28%
[1]
  inhibition: 55%
[2]
  pIC50: 7.10
[3]
  pKi: 7.06

## CC(=O)N1CCN2C[C@H](C)[C@](C)(c3cccc(O)c3)C[C@@H]2C1
[5]
  inhibition: 47%
[1]
  inhibition: 36%
[3]
  pKi: 6.28

## C[C@H]1CN2C[C@H](c3ccccc3)N(Cc3ccccc3)C[C@H]2C[C@@]1(C)c1cccc(C(=O)O)c1
[1]
  inhibition: 9%
[4]
  pKi: 5.60
[6]
  inhibition: 44%

## C[C@H]1CN2C[C@H](c3ccccc3)N(Cc3ccccc3)C[C@H]2C[C@@]1(C)c1ccccc1
[5]
  inhibition: 26%
[1]
  inhibition: 11%

## C[C@H]1CN2CCN(C(=O)CCc3ccccc3)C[C@H]2C[C@@]1(C)c1cccc(O)c1
[1]
  inhibition: 65%
[2]
  pIC50: 7.11
[3]
  pKi: 6.80
[4]
  pKi: 6.85

## COC(=O)c1cccc([C@]2(C)C[C@@H]3CN(Cc4ccccc4)[C@@H](c4ccccc4)CN3C[C@@H]2C)c1
[5]
  inhibition: 39%
[1]
  inhibition: 6%
[6]
  inhibition: 24%

## C[C@H]1CN2CCN(C)C[C@H]2C[C@@]1(C)c1cccc(O)c1
[5]
  inhibition: 11%
[1]
  inhibition: 60%
[6]
  inhibition: 69%

## C[C@H]1CN2CCN(Cc3cccs3)C[C@H]2C[C@@]1(C)c1cccc(O)c1
[7]
  pKi: 7.43
[2]
  pIC50: 9.20
[3]
  pKi: 8.85
[4]
  pKi: 6.59
[8]
  pIC50: 8.18
[9]
  pIC50: 6.47

## C[C@H]1CN2CCN(S(C)(=O)=O)C[C@H]2C[C@@]1(C)c1cccc(O)c1
[5]
  inhibition: 5%
[1]
  inhibition: 14%
[6]
  inhibition: 45%

## C[C@H]1CN2CCN(Cc3ccc(N(C)C)cc3)C[C@H]2C[C@@]1(C)c1cccc(O)c1
[5]
  inhibition: 26%
[1]
  inhibition: 34%
[2]
  pIC50: 6.72
[3]
  pKi: 6.12

## C[C@H]1CN2CCN(Cc3ccccc3O)C[C@H]2C[C@@]1(C)c1cccc(O)c1
[7]
  pKi: 7.12
[2]
  pIC50: 8.80
[3]
  pKi: 8.74
[4]
  pKi: 6.52
[8]
  pIC50: 8.03
[9]
  pIC50: 6.24

## C[C@H]1CN2CCNC[C@H]2C[C@@]1(C)c1cccc(O)c1
[5]
  inhibition: 35%
[1]
  inhibition: 46%
[6]
  inhibition: 49%
